In paper PMC6872687, “Potential for imaging the high-affinity state of the 5-HT1B receptor: a comparison of three PET radioligands with differing intrinsic activity” (EJNMMI Research, 2019):
Values joined by “and” are separate entries in the source; they are usually repeats but may differ in a detail not shown here. Equal values may be shown once. Read-outs that look alike come from different tables or passages of the source.

Columns and labels:
5-HT1B receptor [1] = biological target: T1, 5-HT1B receptor (Homo sapiens, UniProt P28222); experiment: 5-HT1B receptor affinity (in vitro data, Fig. 1); format: binding; details: data provided by AstraZeneca
T1 sequence (P28222 whole entry): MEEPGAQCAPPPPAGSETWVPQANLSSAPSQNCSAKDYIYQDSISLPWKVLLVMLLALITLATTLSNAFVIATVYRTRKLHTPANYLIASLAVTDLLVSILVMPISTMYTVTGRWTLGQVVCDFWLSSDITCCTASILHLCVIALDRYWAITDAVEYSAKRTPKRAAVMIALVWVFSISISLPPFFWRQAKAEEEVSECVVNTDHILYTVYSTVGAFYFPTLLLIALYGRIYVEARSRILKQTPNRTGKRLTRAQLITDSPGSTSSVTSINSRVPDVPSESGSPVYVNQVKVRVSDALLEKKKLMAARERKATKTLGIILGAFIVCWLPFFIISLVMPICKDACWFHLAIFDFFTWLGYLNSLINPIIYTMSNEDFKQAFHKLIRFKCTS

5-HT1B receptor [2] = biological target: T1, 5-HT1B receptor; experiment: GTPγ35S binding assay for EC50 and intrinsic activity (agonist/antagonist efficacy); format: biochemical; details: data provided by AstraZeneca; for Agonist effect / Antagonist effect: measured at 10 μM
Procedure: EC50 values and intrinsic activity (antagonist/agonist efficacy) were measured by comparing 5-HT1B receptor ability to bind GTPγ^35S when stimulated with 5-HT. The agonist/antagonist effect (percentage) was measured at 10 μM and EC50 in a range from 10 μM to 170 pM. EC50 was determined as the concentration at half the maximum of the dose-response curve.

[3] = logD (in vitro data, Fig. 1); format: physicochemical; details: data provided by AstraZeneca
5-HT1B receptor [4] = experiment: PET baseline and AR-A000002 pretreatment measurement of specific binding in NHP brain; format: in vivo, cynomolgus monkey
Procedure: (§1) Three female cynomolgus monkeys were supplied by Astrid Fagraeus Laboratory at the Karolinska Institutet (Solna, Sweden). Anesthesia was initiated via intramuscular injection of ketamine hydrochloride (ca. 10 mg/kg) and after, intubation was maintained by the administration of a mixture of sevoflurane, oxygen, and medical air.
(§2) The NHPs were observed continuously during the days of PET measurements. Body temperature was maintained by Bair Hugger-Model 505 (Arizant Healthcare Inc., MN) and monitored with an esophageal thermometer. Heart rate, blood pressure, respiratory rate, and oxygen saturation were continuously monitored throughout the experiments. Fluid balance was maintained by a continuous infusion of saline. The NHP head was fixed in position throughout PET data acquisition as described previously. PET measurements were conducted using a high-resolution research tomograph (Siemens). Radioactivity in the brain was measured continuously for 123 min after radioligand injection according to a preprogrammed series of 34 frames.
In an initial PET study to evaluate the specific binding of [^11C]3, one NHP (weight 6.9 kg) was used in a baseline measurement. This monkey was also used in a pretreatment paradigm in which the 5-HT1B antagonist AR-A000002 (AZ10419427; 2.0 mg/kg) was intravenously infused over 6 min starting at 30 min before radioligand injection.
(§3) Average PET images were manually co-registered to a T1-weighted brain magnetic resonance (MR) image previously obtained for each monkey. The co-registration parameters were applied to the dynamic PET data. Regions of interest (ROI) were delineated manually for the whole brain, occipital cortex, globus pallidus, caudate nucleus, putamen, ventral striatum (nucleus accumbens), cerebellum, frontal cortex, midbrain, thalamus, and hippocampus. Regional radioactivity was expressed as standardized uptake value (SUV), which was calculated as uptake (becquerels/milliliter)/injected radioactivity (becquerels) × body weight (grams).
(§4) The cerebellum was used as a reference region because this region has negligible density of 5-HT1B receptors. Specific binding to the 5-HT1B receptor was defined as the difference between the total radioactivity concentration in the target brain region and that in the cerebellum, each using the area under the time-radioactivity curve for the scan interval 45–123 min. The binding potential (BPND) was defined as the ratio of specific binding to the radioactivity concentration in the cerebellum, calculated by simplified reference tissue model (SRTM).

5-HT1B receptor [5] = experiment: PET displacement by fenfluramine-induced endogenous 5-HT release in NHP brain; format: in vivo, cynomolgus monkey; details: for Specific binding (45-123 min) in the occipital cortex: baseline PET
Procedure: as §1, §2
PET measurements using fenfluramine to evaluate the sensitivity of [^11C]1 and [^11C]3 towards endogenous 5-HT release followed an identical procedure for two NHPs (weight 6.8 and 7.0 kg). Each NHP was used in a baseline and a displacement PET measurement with intravenous infusion of fenfluramine over 5 min starting 15 min after injection of the same radioligand as used in the baseline measurement. The dose of fenfluramine was 1 mg/kg (i.v.) for both radioligands and 5 mg/kg (i.v.) for [^11C]3 only. After an unexpected complication, the study was limited to be concluded only at the lower dose level. In summary, results for [^11C]1 were acquired from this study (1 mg/kg of fenfluramine) and from Lindberg et al. (5.0 mg/kg of fenfluramine), [15] results for [^11C]2 were exclusively acquired from Finnema et al., and all results for [^11C]3 were acquired from this study. The experimental procedure in this study was designed to replicate the procedure described by Finnema et al..
as §3, §4

5-HT1B receptor [6] = test system: 5-HT1B receptor; design: method as in PMID 20222157; details: baseline PET; results for [11C]2 acquired from Finnema et al.; cited from earlier work
[7] = AR-A000002 2.0 mg/kg i.v. pretreatment vs baseline
[8] = after pretreatment with AR-A000002 2.0 mg/kg i.v.
[9] = fenfluramine 1.0 mg/kg i.v. 15 min after radioligand, 45-123 min, individual monkeys
[10] = fenfluramine 1.0 mg/kg i.v., individual monkeys
[11] = fenfluramine 5.0 mg/kg, 45-123 min
[12] = fenfluramine 1.0 mg/kg i.v., 45-123 min

| Ki (5-HT1B receptor [1]) [nM] | Agonist effect (5-HT1B receptor [2]) [%] | Antagonist effect (5-HT1B receptor [2]) [%] | logD [3] | SMILES | Specific binding (45-123 min) in the occipital cortex (5-HT1B receptor [5]) | Decrease in specific binding, occipital cortex (5-HT1B receptor [5]; [9]) | Displacement (decrease in specific binding), globus pallidus (5-HT1B receptor [5]; [10]) | other results |
| --- | --- | --- | --- | --- | --- | --- | --- | --- |
| 0.6 | 77.1 | 18 | 1.5 | [11CH3]N1CCN(c2cccc3c2O[C@H](C(=O)Nc2ccc(N4CCOCC4)cc2)CC3)CC1 [[^11C]3] | 0.9 | 16% and 27% | 4% and 11% | EC50 (5-HT1B receptor [2]; range 10 μM to 170 pM): 0.97 nM; Reduction of BPND, globus pallidus (5-HT1B receptor [4]; [7]): 52%; Reduction of BPND, occipital cortex (5-HT1B receptor [4]; [7]): 90%; BPND, globus pallidus (5-HT1B receptor [4]; [8]): 0.23; BPND, occipital cortex (5-HT1B receptor [4]; [8]): 0.07; BPND (SRTM), globus pallidus (5-HT1B receptor [4]; baseline): 0.48; BPND (SRTM), occipital cortex (5-HT1B receptor [4]; baseline): 0.7; Maximum radioactivity in the whole brain (5-HT1B receptor [4]; baseline PET, i.v., one monkey): 2.5 SUV; Time of maximum whole brain radioactivity (5-HT1B receptor [4]; baseline PET, i.v., one monkey): 10 min; Decrease in specific binding, occipital cortex (5-HT1B receptor [5]; fenfluramine 5.0 mg/kg i.v. 15 min after radioligand, 45-123 min, individual monkeys): 61% and 62%; Reduction in specific binding, frontal cortex (5-HT1B receptor [5]; [11]): 68%; Reduction in specific binding, hippocampus (5-HT1B receptor [5]; [11]): 34%; Displacement, globus pallidus (5-HT1B receptor [5]; fenfluramine 5.0 mg/kg, individual monkeys): 35% and 49% |
| 0.4 | 53.2 | 48 | 1.3 | Cc1ccc(N2CCN([11CH3])CC2)c2oc(C(=O)Nc3ccc(N4CCOCC4)cc3)cc(=O)c12 [[^11C]2] |  |  |  | Specific binding (45-123 min) in the occipital cortex (5-HT1B receptor [6]): 1.9 |
| 0.13 |  | 190 | 2.3 | [11CH3]N1CCN(c2cc(F)cc3c(=O)cc(C(=O)Nc4ccc(N5CCOCC5)c(F)c4)oc23)CC1 [[^11C]1] | 3.2 | 19% | 3% and 9% | Reduction in specific binding, midbrain (5-HT1B receptor [5]; [12]): 2%; Reduction in specific binding, thalamus (5-HT1B receptor [5]; [12]): 33% |
